Measurements taken from the CheMixHub viscosity set.

Test: xn = mol fraction of the nth substance listed

[Na+].[O-][Cl+2]([O-])[O-] + O
viscosity [mPa·s], 100 kPa
Conditions | x1 = 0.001798 | x1 = 0.003644 | x1 = 0.005393 | x1 = 0.007261 | x1 = 0.008945 | x1 = 0.01087 | x1 = 0.01261 | x1 = 0.01436 | x1 = 0.01582 | x1 = 0.01761
293.15 K | 0.996 | 1.007 | 1.017 | 1.025 | 1.033 | 1.042 | 1.05 | 1.058 | 1.067 | 1.076
298.15 K | 0.889 | 0.897 | 0.908 | 0.918 | 0.926 | 0.933 | 0.942 | 0.949 | 0.957 | 0.965
303.15 K | 0.801 | 0.809 | 0.817 | 0.827 | 0.835 | 0.841 | 0.849 | 0.857 | 0.865 | 0.873
308.15 K | 0.726 | 0.734 | 0.742 | 0.75 | 0.758 | 0.765 | 0.774 | 0.781 | 0.788 | 0.796
313.15 K | 0.663 | 0.67 | 0.678 | 0.685 | 0.693 | 0.7 | 0.708 | 0.716 | 0.723 | 0.729
318.15 K | 0.609 | 0.616 | 0.623 | 0.631 | 0.637 | 0.643 | 0.65 | 0.657 | 0.665 | 0.672

COC(C)(C)C + CCCCCO
Conditions | viscosity [mPa·s]
298.15 K, 101.33 kPa, x1 = 0.0301 | 3.179
298.15 K, 101.33 kPa, x1 = 0.0484 | 3.008
298.15 K, 101.33 kPa, x1 = 0.1133 | 2.461
298.15 K, 101.33 kPa, x1 = 0.1663 | 2.091
298.15 K, 101.33 kPa, x1 = 0.2824 | 1.56
298.15 K, 101.33 kPa, x1 = 0.3286 | 1.346
298.15 K, 101.33 kPa, x1 = 0.3767 | 1.174
298.15 K, 101.33 kPa, x1 = 0.4229 | 1.052
298.15 K, 101.33 kPa, x1 = 0.4688 | 0.939
298.15 K, 101.33 kPa, x1 = 0.5137 | 0.843
298.15 K, 101.33 kPa, x1 = 0.5239 | 0.843
298.15 K, 101.33 kPa, x1 = 0.5817 | 0.725
298.15 K, 101.33 kPa, x1 = 0.6305 | 0.653
298.15 K, 101.33 kPa, x1 = 0.6824 | 0.587
298.15 K, 101.33 kPa, x1 = 0.7282 | 0.538
298.15 K, 101.33 kPa, x1 = 0.7788 | 0.487
298.15 K, 101.33 kPa, x1 = 0.8339 | 0.44
298.15 K, 101.33 kPa, x1 = 0.8897 | 0.398
298.15 K, 101.33 kPa, x2 = 0.0178 | 0.349
303.15 K, 101 kPa, x1 = 0.0401 | 2.675
